The values that follow come from US20180327719A1, “METHOD FOR PRODUCING PANCREATIC BUD CELLS” (Kyoto University, priority 2015, published 2018).

Common to all, as to format: cell-based, human
The subject of one test is NKX6.1+ cells. The test is described as follows: Immunostaining with anti-NKX6.1 antibody after Stage 3. The settings on record: indicated concentrations of AT7867, after Stage 3 (FIG. 4A, 4B). On the procedure: (§1) The medium in the cell culture obtained in Stage 2-3 was changed to Improved MEM Zinc Option medium (15×10^4/ml) supplemented with 100 ng/ml KGF, 0.2 μM LDN193189, 50 ng/ml EGF (R&D systems, Inc.), indicated concentrations (0.01 μM to 50 μM) of AT7867 (Selleck Chemicals), 1% B-27 (DMSO as negative control) and the cells were further cultured for 4 days.

Test [1] deals with PDX1, PTF1A, and NKX6.1 genes. Put plainly: Quantitative PCR of PDX1, PTF1A and NKX6.1 gene expression during Stage 3. Conditions: 1 μM AT7867, Day 0 to Day 4 of Stage 3, standardized with GAPDH, versus DMSO (FIG. 6). Here is the method: In Stage the cells were cultured in the presence of 1 μM AT7867. Cells were collected every day from Day 0 to Day 4 in Stage 3 and expression of PDX1, PTF1A, and NKX6.1 genes was measured by quantitative PCR. RNAs were extracted from the cells using RNeasy kit (Qiagen) and the reverse transcription reaction was performed with ReverTra Ace qPCR RT Master Mix (Toyobo) and oligo (dT) 20 primer. The quantitative PCR was performed with SYBR Premix Ex Taq II (Takara) using StepOnePlus™ Real-Time PCR System (Applied Biosystems). The gene expression was standardized with the expression of GAPDH gene and the relative gene expression was calculated from the relative standard curve (FIG. 6). […] PTF1A and NKX6.1 are transcription factors that indicate the differentiation of the cells into pancreatic bud cells

Test [2] concerns PDX1+/NKX6.1− cells derived from iPS cell line (585A1). Put plainly: Cell number count after Stage 3 culture with AT7867. The settings on record: 0.01 μM to 50 μM AT7867, 4 days, versus DMSO negative control (FIG. 2). On the procedure: as §1
A further test has as its system PDX1+ cells. Put plainly: Immunostaining with anti-PDX1 and anti-Ki67 antibodies in Stage 3. The settings on record: 1 μM AT7867, 1 to 4 days after addition in Stage 3 (FIG. 3). On the procedure: as §1
The subject of another test is PDX1+/NKX6.1+ cells. Put plainly: Double staining with anti-PDX1 and anti-NKX6.1 antibodies (flow cytometry) after Stage 3. The settings on record: addition of AT7867, after Stage 3 (FIGS. 5A and B). Here is the method:
as §1
In general terms: Flow cytometry measures light scatter and fluorescence of single cells or particles in a stream.

As to `Clc1ccc(C2(c3ccc(-c4cn[nH]c4)cc3)CCNCC2)cc1` [AT7867], the “cells positive for at least NKX6.1” value in the test with NKX6.1+ cells is “increased in a manner dependent on the concentration of AT7867”. Besides, in test [1], the “expression of NKX6.1” value is listed as “increased over time”, the “expression of PDX1” value was “increased over time” and the “expression of PTF1A” value is on record as “increased over time”. Besides, in test [2], the “number of cells obtained in Stage 3” value was “increased in a manner dependent on the concentration of AT7867”. Further, the “PDX1 status of proliferated (Ki67+) cells” value in the test with PDX1+ cells is given as “proliferated cells were positive for at least PDX1”. Also, the “PDX1+/NKX6.1+ cells” value in the test with PDX1+/NKX6.1+ cells was “increased by the addition of AT7867”.
